Laboratory results reported in patent publication US20250114380A1, “SMALL MOLECULE CD38 INHIBITORS AND METHODS OF USING SAME” (President and Fellows of Harvard College, priority 2011, published 2025).

Legend:
[1] = system: cellular NADase activity; assay: Cellular NADase activity; assay type: cell-based
Excerpt: FIG. 2A depicts inhibition in cellular NADase activity by CD38 inhibitors Apigenin and Quercetin. In certain embodiments, the invention relates to small molecules capable of inhibiting CD38 activity at nanomolar or micromolar concentrations (FIG. 1 and FIG. 3). Preliminary cellular assays on some of these compounds have shown that they are able to inhibit cellular NADase activity resulting in increased cellular NAD levels (FIG. 2a and FIG. 2b).

[2] = system: murine OSCs; assay: Mitochondrial DNA copy number in OSCs; assay type: cell-based
Description: (§1) Oogonial stem cells were isolated from dissociated ovaries using a FACS based sorting protocol to purify OSCs free of contaminating oocytes (White et al., in press). Cells were maintained in culture medium consisted of minimum essential medium α (MEMα), 10% FBS, 1 mM sodium pyruvate, 1 mM non-essential amino acids, 2 mM 1-glutamine, 0.1 mM β-mercaptoethanol (Sigma), 10 ng/ml-1 LIF (Millipore), 1× N-2 MAX Media Supplement (R&D) 10 ng/ml EGF (Epidermal growth factor, Recombinant human; Gibco), 40 ng/ml human GDNF (glial cell line-derived neurotrophic factor; R&D systems), 1 ng/ml human bFGF (basic fibroblast growth factor; Gibco)
(§2) For all experiments 25,000 cells were plated in each well of a 24 well plate. Cells were allowed to attach for 24 h and then were treated with NMN (β-Nicotinamide mononucleotide; Sigma). Unless otherwise stated, NMN was added at for 12 and again for 6 hours before analysis (12+6 h).
Total cellular DNA was isolated from cells at the indicated time points using DNeasy Blood & Tissue Kit (Qiagen) according to the manufacturer's instructions. Mt DNA copy number was quantified using LightCycler 480 SYBR Green I Master (Roche Applied Science) using the following primers on a Roche 480 PCR machine.

[3] = Mitochondrial function in skeletal muscle in vivo; conditions: 24-month old mice, 1 week of treatment, I.P.
Excerpt: (§3) FIG. 11A depicts the restorative effects of an NAD^+ precursor (NMN) on mitochondrial function in vivo.

[4] = NAD+ levels in vivo in mice
Description: Cardiac [NAD^+] declines with age and is reversed by NMN treatment (n=3; 200 mg/kg/d intraperitoneally for 1 week).
as §3

[5] = system: cultured murine oogonial stem cells; assay: Spontaneous oocyte formation assay; assay type: cell-based; conditions: 200 μM and 400 μM NMN
Description: FIG. 9 depicts the increase in spontaneuous oocyte formation in cultured murine oogonial stem cells by nicotinamide mononucleotide. For assessment of spontaneous oocyte formation, each well of a 24-well plate was seeded with 25.000 OSCs, and the number of oocytes formed and released into the medium per well was assessed the second day after seeding as well as the designated time points after NMN treatment. Left bar=vehicle; middle bar=200 μM nicotinamide mononucleotide (NMN); right bar=400 μM NMN.
For assessment of spontaneous oocyte formation, each well of a 24-well plate was seeded with 25.000 OSCs, and the number of oocytes formed and released into the medium per well was assessed the second day after seeding as well as the designated time points after NMN treatment.

[6] = system: murine oogonial stem cells (OSCs); assay: NAD+/NADH levels in oogonial stem cells; assay type: cell-based
Description: as §1, §2
NAD+/NADH levels were measured according to the manufacturer's instructions using the NAD/NADH Quantitation Kit (Biovision)

[7] = system: C2C 2 cells; assay: Mitochondrial function in C2C 2 cells; assay type: cell-based; conditions: SIRT1-dependent (sh Ctl vs sh SIRT1)

Row | cellular NADase activity [1] | SMILES | mitochondrial DNA content [2] | decline in mitochondrial function in skeletal muscle [3] | age-related decline of cardiac [NAD+] ([4]; 200 mg/kg/d intraperitoneally for 1 week) | rise of NAD+ levels in brain, heart and skeletal muscle ([4]; intraperitoneal injection) | NAD+ levels in vivo ([4]; young and old mice) | spontaneous oocyte formation [5] | cellular NAD+ [6] | cellular NAD+/NADH [6] | cellular NADH [6] | mitochondrial function [7]
1 | inhibition | O=c1c(O)c(-c2ccc(O)c(O)c2)oc2cc(O)cc(O)c12 [Quercetin, 3,5,7,3′,4′-Pentahydroxyflavone] | – | – | – | – | – | – | – | – | – | –
2 | inhibition | O=c1cc(-c2ccc(O)cc2)oc2cc(O)cc(O)c12 [Apigenin, 5,7,4′-Trihydroxyflavone] | – | – | – | – | – | – | – | – | – | –
3 | – | NC(=O)c1ccc[n+]([C@@H]2O[C@H](COP(=O)([O-])O)[C@@H](O)[C@H]2O)c1 [NMN, β-Nicotinamide mononucleotide] | increase | completely reversed | reversed | 30-100% | raises NAD^+ levels | increase | increase | increase | increase | increases mitochondrial function
